Test results published in US20220002400A1 (priority 2019, published 2022).
Where “and” joins values, the source holds several entries; their conditions need not be identical. Equal entries are not always repeated.

Legend:
Format in all cases: cell-based
Influenza A PR8 virus [1] = system: Influenza A PR8 virus
A549 cells = conditions: 100 nM for 1 hour at 37° C.
Influenza A PR8 virus [2] = conditions: 10 nM

CO/C1=C\C(C)=C\[C@@H](C)[C@@H](O)[C@@H](C)C/C(C)=C/C=C/[C@H](OC)[C@@H]([C@@H](C)[C@@H](O)[C@H](C)[C@@]2(O)C[C@@H](O)[C@H](C)[C@@H](C(C)C)O2)OC1=O [BafA, Bafilomycin A]
protection against IAV infection (percentage of HA+ cells) (Influenza A PR8 virus [1]): further protected the KO cells against IAV infection | lysotracker staining (A549 cells): a decrease in lysotracker staining was observed

COC(=O)OCOc1c2n(ccc1=O)N([C@@H]1c3ccccc3SCc3c1ccc(F)c3F)[C@@H]1COCCN1C2=O [baloxavir marboxil]
effect of baloxavir marboxil treatment combined with CRISPR deletion on Influenza A virus infection (Influenza A PR8 virus [2]; 1 nM, 5 nM): synergistic effect with baloxavir marboxil treatment but to a lesser extent compared to CMTR1 | reduction of the rate of Influenza A virus infection compared to untreated cells, according to Hemagglutinin staining (Influenza A PR8 virus [2]): 58% and 91%
